Assays:
[1] = target: PRMT5-MTA (Homo sapiens, UniProt O14744); experiment: Enzymatic inhibitory activity against PRMT5-MTA (AlphaScreen); format: biochemical; details: read-out: IC50
How it was run: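 PRMT5/[…] (1 nM) was preincubated for 30 min at room temperature with 1 µM […] and 2.5 µM SAM, then exposed to compound (10-point, 3-fold from 1000 nM) for 15 min at 23 °C. Histone H4 substrate (5 nM) was added and reacted for 45 min at 23 °C. Symmetric dimethyl-R3 H4 was detected by AlphaScreen and IC50 calculated.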

[2] = system: HCT116-WT cells; experiment: Inhibitory activity against cell proliferation (CellTiter Glo, 6 days), HCT116-WT; format: cell-based; details: 144 h, HCT116-WT cells, 6 days, CellTiter Glo; read-out: HCT116-WT IC50
How it was run: (§1)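 Cells were seeded at 250 per well in McCoy's 5A with 10% FBS and left overnight at 37°C, 5% CO2. Compounds were added as 8-point, 4-fold dilutions from 10000 nM, with DMSO-only controls, for 6 days. IC50 values came from CellTiter Glo luminescence.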

[3] = system: HCT116 MTAP KO cells; experiment: Inhibitory activity against cell proliferation (CellTiter Glo, 6 days), HCT116 MTAP KO; format: cell-based; details: for IC50: Homo sapiens, HCT-116, 144 h, HCT116 MTAP KO cells, 6 days, CellTiter Glo, read-out: HCT116 MTAP KO IC50; for Selectivity HCT 116-WT/ HCT116 MTAP KO: ratio of IC50 HCT116-WT / HCT116 MTAP KO
How it was run: as §1

PRMT5-MTA, sequence (O14744 whole entry): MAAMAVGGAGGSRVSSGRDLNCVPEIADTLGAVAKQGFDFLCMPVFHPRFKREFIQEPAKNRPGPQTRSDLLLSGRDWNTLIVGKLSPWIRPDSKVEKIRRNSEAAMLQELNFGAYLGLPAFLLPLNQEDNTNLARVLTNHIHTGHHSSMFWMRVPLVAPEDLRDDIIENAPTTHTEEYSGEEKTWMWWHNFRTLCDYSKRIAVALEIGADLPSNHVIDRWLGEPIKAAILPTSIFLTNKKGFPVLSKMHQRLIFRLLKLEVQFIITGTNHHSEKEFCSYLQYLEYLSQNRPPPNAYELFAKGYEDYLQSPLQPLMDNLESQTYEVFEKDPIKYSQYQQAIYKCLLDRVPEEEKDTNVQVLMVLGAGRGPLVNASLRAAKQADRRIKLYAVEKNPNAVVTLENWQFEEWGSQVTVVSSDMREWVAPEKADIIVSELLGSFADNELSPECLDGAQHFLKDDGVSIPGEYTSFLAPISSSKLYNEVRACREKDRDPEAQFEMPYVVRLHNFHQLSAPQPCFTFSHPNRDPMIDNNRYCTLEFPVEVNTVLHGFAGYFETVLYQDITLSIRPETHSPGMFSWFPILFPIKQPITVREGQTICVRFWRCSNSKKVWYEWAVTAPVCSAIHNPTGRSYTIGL
PRMT5-MTA, sequence (Q9BQA1 whole entry partner): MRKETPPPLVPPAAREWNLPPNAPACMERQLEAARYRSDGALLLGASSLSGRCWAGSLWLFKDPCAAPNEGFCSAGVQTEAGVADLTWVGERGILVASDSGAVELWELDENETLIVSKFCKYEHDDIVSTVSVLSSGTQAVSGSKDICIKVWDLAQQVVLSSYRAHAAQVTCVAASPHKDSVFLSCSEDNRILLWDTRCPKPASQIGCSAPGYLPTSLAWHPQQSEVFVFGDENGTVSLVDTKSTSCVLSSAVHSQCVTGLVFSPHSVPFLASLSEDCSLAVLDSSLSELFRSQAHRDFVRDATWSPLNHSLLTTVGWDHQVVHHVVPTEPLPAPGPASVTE

Cc1cc2cc(C(=O)N(Cc3ccc(C4CCOC4)cn3)N(C)c3ncccn3)ccc2nc1N (stereo not drawn) [Example 217, 2-amino-N',3-dimethyl-N'-(pyrimidin-2-yl)-N-((5-(tetrahydrofuran-3-yl)pyridin-2-yl)methyl)quinoline-6-carbohydrazide] showed an IC50 [1] of 2.9 nM, an IC50 [2] of 2950 nM and an IC50 [3] of 70 nM. For the same compound, the “Selectivity HCT 116-WT/ HCT116 MTAP KO” value [3] was 42.11.
With Cc1cc2cc(C(=O)N(Cc3ccc(C4CCOCC4)cn3)N(C)c3ncccn3)ccc2nc1N [Example 218, 2-amino-N',3-dimethyl-N'-(pyrimidin-2-yl)-N-((5-(tetrahydro-2H-pyran-4-yl)pyridin-2-yl)methyl)quinoline-6-carbohydrazide] the IC50 [1] was 7 nM, the IC50 [2] was 3070 nM and the IC50 [3] was 291 nM. For the same compound, the “Selectivity HCT 116-WT/ HCT116 MTAP KO” value [3] was 10.56.
Cc1cc2cc(C(=O)N(Cc3ccc(-c4ccnnc4)cn3)N(C)c3ncccn3)ccc2nc1N [Example 220, 2-amino-N',3-dimethyl-N-((5-(pyridazin-4-yl)pyridin-2-yl)methyl)-N'-(pyrimidin-2-yl) quinoline-6-carbohydrazide] showed an IC50 [1] of 1.2 nM, an IC50 [2] of 405 nM and an IC50 [3] of 23 nM. For the same compound, the “Selectivity HCT 116-WT/ HCT116 MTAP KO” value [3] was 17.61.
Cc1cc2cc(C(=O)N(Cc3ccc(-c4cscn4)cn3)N(C)c3ncccn3)ccc2nc1N [Example 221, 2-amino-N',3-dimethyl-N'-(pyrimidin-2-yl)-N-((5-(thiazol-4-yl)pyridin-2-yl)methyl)quinoline-6-carbohydrazide] gave an IC50 [1] of 2.3 nM, an IC50 [2] of 1870 nM and an IC50 [3] of 69 nM. For the same compound, the “Selectivity HCT 116-WT/ HCT116 MTAP KO” value [3] was 27.16.
With Cc1cc2cc(C(=O)N(Cc3ncc(-c4cccnc4)cc3F)N(C)c3ncccn3)ccc2nc1N [Example 222, 2-amino-N-((5-fluoro-[3,3'-bipyridine]-6-yl)methyl)-N',3-dimethyl-N'-(pyrimidin-2-yl)quinoline-6-carbohydrazide] the IC50 [1] was 1.4 nM, the IC50 [2] was 328 nM and the IC50 [3] was 20 nM. For the same compound, the “Selectivity HCT 116-WT/ HCT116 MTAP KO” value [3] was 16.40.
Cc1cc2cc(C(=O)N(Cc3ccc(N4CCC(F)(F)C4)cn3)N(C)c3ncccn3)ccc2nc1N [Example 224, 2-amino-N-((5-(3,3-difluoropyrrolidin-1-yl)pyridin-2-yl)methyl)-N',3-dimethyl-N'-(pyrimidin-2-yl)quinoline-6-carbohydrazide] was tested, and the IC50 [1] was 16 nM, the IC50 [2] was greater than 10000 nM and the IC50 [3] was 470 nM.
With COCc1ncsc1-c1ccc(CN(C(=O)c2ccc3nc(N)c(C)cc3c2)N(C)c2ncccn2)nc1 [Example 226, 2-amino-N-((5-(4-(methoxymethyl)thiazol-5-yl)pyridin-2-yl)methyl)-N',3-dimethyl-N'-(pyrimidin-2-yl)quinoline-6-carbohydrazide] the IC50 [1] was 5 nM, the IC50 [2] was 891 nM and the IC50 [3] was 28 nM. For the same compound, the “Selectivity HCT 116-WT/ HCT116 MTAP KO” value [3] was 31.82.
Work on Cc1cc2cc(C(=O)N(Cc3ccc(-c4nncs4)cn3)N(C)c3ncccn3)ccc2nc1N [Example 229, N-((5-(1,3,4-thiadiazol-2-yl)pyridin-2-yl)methyl)-2-amino-N',3-dimethyl-N'-(pyrimidin-2-yl)quinoline-6-carbohydrazide] yielded an IC50 [1] of 3.7 nM, an IC50 [2] of 670 nM and an IC50 [3] of 14 nM. For the same compound, the “Selectivity HCT 116-WT/ HCT116 MTAP KO” value [3] was 47.86.
Cc1cc2cc(C(=O)N(Cc3ccc(-c4nncs4)cn3)N(C)c3nccc4nccnc34)ccc2nc1N [Example 232, N-((5-(1,3,4-thiadiazol-2-yl)pyridin-2-yl)methyl)-2-amino-N',3-dimethyl-N'-(pyrido[3,4-b]pyrazin-5-yl)quinoline-6-carbohy drazide] was tested, and the IC50 [1] was 4.3 nM, the IC50 [2] was 995 nM and the IC50 [3] was 46 nM. For the same compound, the “Selectivity HCT 116-WT/ HCT116 MTAP KO” value [3] was 21.63.
Cc1cc2cc(C(=O)N(Cc3ccc(-c4cnn(CF)c4)cn3)N(C)c3ncccn3)ccc2nc1N [Example 233, 2-amino-N-((5-(1-(fluoromethyl)-1H-pyrazol-4-yl)pyridin-2-yl)methyl)-N',3-dimet hyl-N'-(pyrimidin-2-yl)quinoline-6-carbo hydrazide] showed an IC50 [1] of 4.4 nM, an IC50 [2] of 1020 nM and an IC50 [3] of 39 nM. For the same compound, the “Selectivity HCT 116-WT/ HCT116 MTAP KO” value [3] was 26.28.
For Cc1cc2cc(C(=O)N(Cc3ccc(-c4scnc4C)cn3)N(C)c3ncccn3)ccc2nc1N [Example 235, 2-amino-N',3-dimethyl-N-((5-(4-methylthiazol-5-yl)pyridin-2-yl)methyl)-N'-(pyrimidin-2-yl)quinoline-6-carbohydrazide], the IC50 [1] was 3.8 nM, the IC50 [2] was 183 nM and the IC50 [3] was 5.7 nM. The “Selectivity HCT 116-WT/ HCT116 MTAP KO” value [3] was 32.11.
Work on Cc1cc2cc(C(=O)N(Cc3ccc(-c4scnc4CO)cn3)N(C)c3ncccn3)ccc2nc1N [Example 236, 2-amino-N-((5-(4-(hydroxymethyl)thiazo 1-5-yl)pyridin-2-yl)methyl)-N',3-dimethyl -N'-(pyrimidin-2-yl)quinoline-6-carbohyd razide] yielded an IC50 [1] of 6 nM, an IC50 [2] of 1110 nM and an IC50 [3] of 26 nM. The “Selectivity HCT 116-WT/ HCT116 MTAP KO” value [3] was 42.85.
For Cc1cc2cc(C(=O)N(Cc3ccc(-c4scnc4C(F)(F)F)cn3)N(C)c3ncccn3)ccc2nc1N [Example 237, 2-amino-N',3-dimethyl-N'-(pyrimidin-2-yl)-N-((5-(4-(trifluoromethyl)thiazol-5-yl)pyridin-2-yl)methyl)quinoline-6-carbohydrazide], the IC50 [1] was 8 nM, the IC50 [2] was 1180 nM and the IC50 [3] was 32 nM. The “Selectivity HCT 116-WT/ HCT116 MTAP KO” value [3] was 36.97.
[2H]c1nc(C)c(-c2ccc(CN(C(=O)c3ccc4nc(N)c(C)cc4c3)N(c3ncccn3)C3CC3)nc2)s1 [Example 238, 2-amino-N'-cyclopropyl-3-methyl-N-((5-(4-methylthiazol-5-yl-2d)pyridin-2-yl)methyl)-N'-(pyrimidin-2-yl)quinoline-6-carbohydrazide] gave an IC50 [1] of 5.7 nM, an IC50 [2] of 112 nM and an IC50 [3] of 5.1 nM. For the same compound, the “Selectivity HCT 116-WT/ HCT116 MTAP KO” value [3] was 21.96.
For Cc1cc2cc(C(=O)N(Cc3ccc(-c4scnc4C(F)F)cn3)N(c3ncccn3)C3CC3)ccc2nc1N [Example 239, 2-amino-N'-cyclopropyl-N-((5-(4-(difluoromethyl)thiazol-5-yl)pyridin-2-yl)methyl)-3-methyl-N'-(pyrimidin-2-yl)quinoline-6-carbohydrazide], the IC50 [1] was 7.3 nM, the IC50 [2] was 261 nM and the IC50 [3] was 14 nM. The “Selectivity HCT 116-WT/ HCT116 MTAP KO” value [3] was 18.64.
In the case of Cc1cc2cc(C(=O)N(Cc3ccc(-c4scnc4C4CC4)cn3)N(c3ncccn3)C3CC3)ccc2nc1N [Example 240, 2-amino-N'-cyclopropyl-N-((5-(4-cyclopropylthiazol-5-yl)pyridin-2-yl)methyl)-3-methyl-N'-(pyrimidin-2-yl)quinoline-6-carbohydrazide], the IC50 [1] is reported as 3.9 nM, the IC50 [2] is reported as 396 nM and the IC50 [3] is reported as 36 nM. The “Selectivity HCT 116-WT/ HCT116 MTAP KO” value [3] was 11.00.
Compound CCc1ncsc1-c1ccc(CN(C(=O)c2ccc3nc(N)c(C)cc3c2)N(C)c2ncccn2)nc1 [Example 241, 2-amino-N-((5-(4-ethylthiazol-5-yl)pyridin-2-yl)methyl)-N',3-dimethyl-N'-(pyrimidin-2-yl)quinoline-6-carbohydrazide] has an IC50 [1] of 7.3 nM, an IC50 [2] of 676 nM and an IC50 [3] of 37 nM. For the same compound, the “Selectivity HCT 116-WT/ HCT116 MTAP KO” value [3] was 18.27.
For Cc1cc2cc(C(=O)N(Cc3ccc(-c4scnc4CF)cn3)N(C)c3ncccn3)ccc2nc1N [Example 242, 2-amino-N-((5-(4-(fluoromethyl)thiazol-5-yl)pyridin-2-yl)methyl)-N',3-dimethyl-N'-(pyrimidin-2-yl)quinoline-6-carbohydrazide], the IC50 [1] was 5.9 nM, the IC50 [2] was 235 nM and the IC50 [3] was 8.4 nM. For the same compound, the “Selectivity HCT 116-WT/ HCT116 MTAP KO” value [3] was 27.98.
Cc1cc2cc(C(=O)N(Cc3ccc(-c4scnc4C#N)cn3)N(C)c3ncccn3)ccc2nc1N [Example 243, 2-amino-N-((5-(4-cyanothiazol-5-yl)pyridin-2-yl)methyl)-N',3-dimethyl-N'-(pyrimidin-2-yl)quinoline-6-carbohydrazide] was tested, and the IC50 [1] was 3.4 nM, the IC50 [2] was 148 nM and the IC50 [3] was 6.5 nM. For the same compound, the “Selectivity HCT 116-WT/ HCT116 MTAP KO” value [3] was 22.77.
With Cc1cc2cc(C(=O)N(Cc3ccc(-c4cnc(C(F)(F)F)s4)cn3)N(C)c3ncccn3)ccc2nc1N [Example 244, 2-amino-N',3-dimethyl-N'-(pyrimidin-2-yl)-N-((5-(2-(trifluoromethyl)thiazol-5-yl)pyridin-2-yl)methyl)quinoline-6-carbohydrazide] the IC50 [1] was 4.2 nM, the IC50 [2] was 581 nM and the IC50 [3] was 41 nM. For the same compound, the “Selectivity HCT 116-WT/ HCT116 MTAP KO” value [3] was 14.17.
Compound Cc1cc2cc(C(=O)N(Cc3ccc(-c4nncs4)cn3)N(c3ncccn3)C3CC3)ccc2nc1N [Example 250, N-((5-(1,3,4-thiadiazol-2-yl)pyridin-2-yl)methyl)-2-amino-N'-cyclopropyl-3-methyl-N'-(pyrimidin-2-yl)quinoline-6-carbohy drazide] has an IC50 [1] of 3.7 nM, an IC50 [2] of 820 nM and an IC50 [3] of 41 nM. For the same compound, the “Selectivity HCT 116-WT/ HCT116 MTAP KO” value [3] was 20.00.
CCOc1ccc(CN(C(=O)c2ccc3nc(N)c(C)cc3c2)N(C)c2ncccn2)nc1 [Example 264, 2-amino-N-((5-ethoxypyridin-2-yl)methyl)-N',3-dimethyl-N'-(pyrimidin-2-yl)quin oline-6-carbohydrazide] was tested, and the IC50 [1] was 1 nM, the IC50 [2] was 2480 nM and the IC50 [3] was 138 nM. For the same compound, the “Selectivity HCT 116-WT/ HCT116 MTAP KO” value [3] was 17.97.

Source: patent EP4745134A1 (Jiangsu Yahong Meditech Co., Ltd., priority 2023, dated 2025)
